Experimental data published in US20260055083A1, “APOL1 INHIBITORS AND METHODS OF USE” (Maze Therapeutics, Inc., priority 2022, published 2026).

Columns and labels:
APOL1 G2 [1] = target: T1, APOL1 G2 (Homo sapiens, UniProt O14791, DEL388-389); test: APOL1 G2 FLIPR calcium influx assay (HEK T-REx/GCaMP6f/APOL1 G2 K6.3 cells); type: cell-based; conditions: HEK293 clone expressing GCaMP6f, doxycycline-induced APOL1 G2; prevention of calcium influx; geometric mean of at least 2 assay runs
T1 construct: expressed in transfected cells; host or cells: HEK293/T-REx APOL1 G2 clone #2, doxycycline-inducible
T1 sequence (O14791 with tags, fused parts or gaps DEL388-389): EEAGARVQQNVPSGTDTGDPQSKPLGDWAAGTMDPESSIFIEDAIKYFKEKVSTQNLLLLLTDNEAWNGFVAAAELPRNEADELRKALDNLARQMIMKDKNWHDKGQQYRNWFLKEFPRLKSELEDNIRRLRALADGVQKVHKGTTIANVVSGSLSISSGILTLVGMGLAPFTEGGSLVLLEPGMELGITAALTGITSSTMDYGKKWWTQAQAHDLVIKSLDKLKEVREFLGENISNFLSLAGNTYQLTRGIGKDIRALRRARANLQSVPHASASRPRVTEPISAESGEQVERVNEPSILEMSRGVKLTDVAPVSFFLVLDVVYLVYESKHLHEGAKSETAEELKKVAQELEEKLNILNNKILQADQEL
Method in brief: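 HEK293 clone stably expressing GCaMP6f, APOL1 G2 induced with doxycycline for 6 h; compounds (duplicate 8-point dose response) preincubated 10 min at room temperature in Ca2+-free Tyrode's buffer, pH 7.4. Ca2+ added to 5 mM final, influx read on FLIPR; AC50 is geometric mean of ≥2 runs.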

APOL1 G2 [2] = target: T1, APOL1 G2; test: APOL1 G2 HEK293 rescue of cell death caused by overexpression of APOL1 (CellTiter-Glo); type: cell-based; conditions: HEK293/T-REx APOL1 G2 clone #2, doxycycline induction, 17 hours, CellTiter-Glo luminescence; reversal of cell death; geometric mean of at least 2 assay runs
Method in brief: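 Doxycycline (6 ng/mL)-induced HEK293/T-REx APOL1 G2 clone seeded at 5,000 cells/well with compound in duplicate 8-point 3-fold series (0.5% DMSO), 17 h at 37 °C. CellTiter-Glo luminescence; EC50 from four-parameter logistic fit, geometric mean of ≥2 runs.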

AC50 (APOL1 G2 [1]) [nM]	Structure (SMILES)	EC50 (APOL1 G2 [2]) [nM]
998	C[C@@H]1C[C@H](COc2ccc(S(=O)(=O)CCCS(C)(=O)=O)cc2)CN1C1CCc2c(C#N)cc(Cl)cc2C1 (single isomer, unassigned) [Compound 45, (6S or 6R)-3-chloro-6-[(2R,4S)-4-{[4-(3-methanesulfonylpropanesulfonyl)phenoxy]methyl}-2-methylpyrrolidin-1-yl]-5,6,7,8-tetrahydronaphthalene-1-carbonitrile]	300
926	C[C@@H]1C[C@H](COc2ccc(S(=O)(=O)CCS(C)(=O)=O)cc2)CN1C1CCc2c(C#N)cc(Cl)cc2C1 (single isomer, unassigned) [Compound 47, (6S or 6R)-3-chloro-6-[(2R,4S)-4-{[4-(2-methanesulfonylethanesulfonyl)phenoxy]methyl}-2-methylpyrrolidin-1-yl]-5,6,7,8-tetrahydronaphthalene-1-carbonitrile]	> 3340
1130	C[C@@H]1C[C@H](COc2ccc(S(=O)(=O)CCS(C)(=O)=O)cc2)CN1C1CCc2c(C#N)cc(Cl)cc2C1 (single isomer, unassigned) [Compound 48, (6R or 6S)-3-chloro-6-[(2R,4S)-4-{[4-(2-methanesulfonylethanesulfonyl)phenoxy]methyl}-2-methylpyrrolidin-1-yl]-5,6,7,8-tetrahydronaphthalene-1-carbonitrile]	398
1070	C[C@@H]1C[C@H](COc2ccc(S(=O)(=O)CCS(C)(=O)=O)cc2)CN1C1CCc2ccc(Cl)cc2C1 (single isomer, unassigned) [Compound 50, (2R,4S)-1-[(2S or 2R)-7-chloro-1,2,3,4-tetrahydronaphthalen-2-yl]-4-{[4-(2-methanesulfonylethanesulfonyl)phenoxy]methyl}-2-methylpyrrolidine]	346
439	C[C@@H]1C[C@H](COc2ccc(S(=O)(=O)CCS(C)(=O)=O)cc2)CN1C1CCc2ccc(Cl)cc2C1 (single isomer, unassigned) [Compound 51, (2R,4S)-1-[(2R or 2S)-7-chloro-1,2,3,4-tetrahydronaphthalen-2-yl]-4-{[4-(2-methanesulfonylethanesulfonyl)phenoxy]methyl}-2-methylpyrrolidine]	128
999	C[C@@H]1C[C@H](COc2ccc(S(=O)(=O)CCCS(C)(=O)=O)cc2)CN1C1CCc2ccc(Cl)cc2C1 (single isomer, unassigned) [Compound 53, (2R,4S)-1-[(2R or 2S)-7-chloro-1,2,3,4-tetrahydronaphthalen-2-yl]-4-{[4-(3-methanesulfonylpropanesulfonyl)phenoxy]methyl}-2-methylpyrrolidine]	279
857	C[C@@H]1C[C@H](COc2ccc(S(=O)(=O)CCCS(C)(=O)=O)cc2)CN1C1CCc2ccc(Cl)cc2C1 (single isomer, unassigned) [Compound 54, (2R,4S)-1-[(2S or 2R)-7-chloro-1,2,3,4-tetrahydronaphthalen-2-yl]-4-{[4-(3-methanesulfonylpropanesulfonyl)phenoxy]methyl}-2-methylpyrrolidine]	54.8
714	C[C@@H]1C[C@H](COc2ccc(S(=O)(=O)CCO)cc2)CN1C1CCc2c(C#N)cc(Cl)cc2C1 (single isomer, unassigned) [Compound 56, (6R or 6S)-3-chloro-6-[(2R,4S)-4-{[4-(2-hydroxyethanesulfonyl)phenoxy]methyl}-2-methylpyrrolidin-1-yl]-5,6,7,8-tetrahydronaphthalene-1-carbonitrile]	185
802	C[C@@H]1C[C@H](COc2ccc(S(=O)(=O)CCO)cc2)CN1C1CCc2c(C#N)cc(Cl)cc2C1 (single isomer, unassigned) [Compound 57, (6S or 6R)-3-chloro-6-[(2R,4S)-4-{[4-(2-hydroxyethanesulfonyl)phenoxy]methyl}-2-methylpyrrolidin-1-yl]-5,6,7,8-tetrahydronaphthalene-1-carbonitrile]	266
794	C[C@@H]1C[C@H](COc2ccc(S(=O)(=O)CCO)cc2)CN1C1CCc2ccc(C#N)cc2C1 (single isomer, unassigned) [Compound 59, (7R or 7S)-7-[(2R,4S)-4-{[4-(2-hydroxyethanesulfonyl)phenoxy]methyl}-2-methylpyrrolidin-1-yl]-5,6,7,8-tetrahydronaphthalene-2-carbonitrile]	380
477	C[C@@H]1C[C@H](COc2ccc(S(=O)(=O)CCO)cc2)CN1C1CCc2ccc(C#N)cc2C1 (single isomer, unassigned) [Compound 60, (7S or 7R)-7-[(2R,4S)-4-{[4-(2-hydroxyethanesulfonyl)phenoxy]methyl}-2-methylpyrrolidin-1-yl]-5,6,7,8-tetrahydronaphthalene-2-carbonitrile]	37
462	C[C@@H]1C[C@H](COc2ccc(S(=O)(=O)CCO)cc2)CN1C1CCc2ccc(Cl)cc2C1 (single isomer, unassigned) [Compound 62, 2-(4-{[(3S,5R)-1-[(2R or 2S)-7-chloro-1,2,3,4-tetrahydronaphthalen-2-yl]-5-methylpyrrolidin-3-yl]methoxy}benzenesulfonyl)ethan-1-ol]	201
188	C[C@@H]1C[C@H](COc2ccc(S(=O)(=O)CCO)cc2)CN1C1CCc2ccc(Cl)cc2C1 (single isomer, unassigned) [Compound 63, 2-(4-{[(3S,5R)-1-[(2S or 2R)-7-chloro-1,2,3,4-tetrahydronaphthalen-2-yl]-5-methylpyrrolidin-3-yl]methoxy}benzenesulfonyl)ethan-1-ol]	24.8
346	C[C@@H]1CN(CCc2cccc(C#N)c2)C[C@H]1COc1ccc(S(C)(=O)=NCCS(C)(=O)=O)cc1 (single isomer, unassigned) [Compound 69]	377
236	C[C@@H]1CN(CCc2cccc(C#N)c2)C[C@H]1COc1ccc(S(C)(=O)=NCCS(C)(=O)=O)cc1 (single isomer, unassigned) [Compound 70]	342
183	CN=S(C)(=O)c1ccc(OC[C@@H]2CN(CCc3cccc(C#N)c3)C[C@H]2C)cn1 (single isomer, unassigned) [Compound 72]	217
351	CN=S(C)(=O)c1ccc(OC[C@@H]2CN(CCc3cccc(C#N)c3)C[C@H]2C)cn1 (single isomer, unassigned) [Compound 73]	375
1250	C[C@@H]1C[C@H](COc2ccc(S(C)(=O)=O)nc2)CN1CC(O)c1cccc(C#N)c1 (single isomer, unassigned) [Compound 93, 3-[(1R or 1S)-1-hydroxy-2-[(2R,4S)-4-{[(6-methanesulfonylpyridin-3-yl)oxy]methyl}-2-methylpyrrolidin-1-yl]ethyl]benzonitrile]	1670
614	C[C@@H]1C[C@H](COc2ccc(S(C)(=O)=O)nc2)CN1CC(O)c1cccc(C#N)c1 (single isomer, unassigned) [Compound 94, 3-[(1S or 1R)-1-hydroxy-2-[(2R,4S)-4-{[(6-methanesulfonylpyridin-3-yl)oxy]methyl}-2-methylpyrrolidin-1-yl]ethyl]benzonitrile]	103
1040	Cc1cc(OC[C@H]2C[C@@H](C)N(CC(O)c3cccc(C#N)c3)C2)cnc1S(C)(=O)=O (single isomer, unassigned) [Compound 95, 3-[(1R or 1S)-1-hydroxy-2-[(2R,4S)-4-{[(6-methanesulfonyl-5-methylpyridin-3-yl)oxy]methyl}-2-methylpyrrolidin-1-yl]ethyl]benzonitrile]	1140
188	Cc1cc(OC[C@H]2C[C@@H](C)N(CC(O)c3cccc(C#N)c3)C2)cnc1S(C)(=O)=O (single isomer, unassigned) [Compound 96, 3-[(1S or 1R)-1-hydroxy-2-[(2R,4S)-4-{[(6-methanesulfonyl-5-methylpyridin-3-yl)oxy]methyl}-2-methylpyrrolidin-1-yl]ethyl]benzonitrile]	27.7
813	CC(C(O)c1cc(Cl)cc(C#N)c1)N1C[C@@H](COc2ccc(S(C)(=O)=O)cc2)C[C@H]1C (single isomer, unassigned) [Compound 97, 3-chloro-5-[(1S,2S or 1R,2R or 1R,2S or 1S,2R)-1-hydroxy-2-[(2R,4S)-4-[(4-methanesulfonylphenoxy)methyl]-2-methylpyrrolidin-1-yl]propyl]benzonitrile]	2100
